The source of these data is ChEMBL document CHEMBL1131351, “Nonsteroidal progesterone receptor antagonists based on a conformationally-restricted subseries of 6-aryl-1,2-dihydro-2,2,4-trimethylquinolines” (Bioorg Med Chem Lett, 1998).

Test [1] addresses T1, Progesterone receptor (Homo sapiens, UniProt P06401).
T1 sequence (P06401 whole entry): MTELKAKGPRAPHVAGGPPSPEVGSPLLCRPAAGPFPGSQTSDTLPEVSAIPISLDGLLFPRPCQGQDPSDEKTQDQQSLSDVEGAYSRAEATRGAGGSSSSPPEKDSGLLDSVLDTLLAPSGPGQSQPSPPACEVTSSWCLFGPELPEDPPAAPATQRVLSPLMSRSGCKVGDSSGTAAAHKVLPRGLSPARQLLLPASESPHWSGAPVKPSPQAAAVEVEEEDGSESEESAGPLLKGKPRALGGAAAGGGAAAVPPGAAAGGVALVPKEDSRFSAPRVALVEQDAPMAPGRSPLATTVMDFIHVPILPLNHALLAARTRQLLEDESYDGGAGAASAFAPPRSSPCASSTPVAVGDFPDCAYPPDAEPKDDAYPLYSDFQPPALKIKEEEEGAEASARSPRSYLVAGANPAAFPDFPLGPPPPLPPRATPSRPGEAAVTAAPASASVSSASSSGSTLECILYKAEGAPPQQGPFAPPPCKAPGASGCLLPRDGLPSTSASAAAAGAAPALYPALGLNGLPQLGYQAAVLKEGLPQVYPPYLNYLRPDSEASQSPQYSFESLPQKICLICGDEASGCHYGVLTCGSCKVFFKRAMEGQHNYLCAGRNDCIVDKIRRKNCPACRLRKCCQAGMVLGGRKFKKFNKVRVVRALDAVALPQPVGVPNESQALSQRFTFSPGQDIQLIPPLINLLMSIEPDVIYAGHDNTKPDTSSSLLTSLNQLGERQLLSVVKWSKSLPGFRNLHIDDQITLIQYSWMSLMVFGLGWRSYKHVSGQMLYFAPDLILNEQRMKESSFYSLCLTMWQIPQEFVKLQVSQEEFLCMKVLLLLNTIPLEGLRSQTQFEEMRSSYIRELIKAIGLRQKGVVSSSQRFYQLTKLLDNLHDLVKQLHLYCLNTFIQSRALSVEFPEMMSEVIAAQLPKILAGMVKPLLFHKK
Description: Antagonist activity against human progesterone receptor B (hPR-B) in co-transfected CV-1 cells. It is filed as functional, cell-based.

In test [2] the target is T1, Progesterone receptor. The test can be described thus: Binding affinity against human progesterone receptor-A (hPR-A).
The target of test [3] is T1, Progesterone receptor. Description: Agonistic activity against human progesterone receptor B (hPR-B) in co-transfected CV-1 cells. The test is classed as functional, cell-based.

Molecules are shown by their SMILES. Some results are limits rather than exact numbers.

In general, IC50 refers to the concentration that gives 50% inhibition. Higher therefore signals lower potency. In general, Ki refers to a dissociation constant, usually derived from enzyme kinetics or from competition with a known ligand. As to `CC1=CC(C)(C)Nc2cc3c(cc21)-c1c(F)cc(F)cc1C3O` (configuration not stated), half-maximal inhibition at Progesterone receptor [1] (IC50) was put at 80 nM. Also, the Ki at Progesterone receptor [2] turned out to be 25.5 nM. In the same order, the values of `CC1=CC(C)(C)Nc2ccc3c(oc4ccccc43)c21` are 1140 nM and 77 nM.

At Progesterone receptor [1], `CC1=CC(C)(C)Nc2cc3c(cc21)-c1c(F)ccc(F)c1C3` registered an IC50 of 146 nM. Besides, at Progesterone receptor [2], the affinity, expressed as Ki, was 3.1 nM. The matching figures for `CC1=CC(C)(C)Nc2cc3c(cc21)-c1ccc(Br)cc1C3C` (configuration not stated): 10000 nM and above 10000 nM.

As for `CC1=CC(C)(C)Nc2cc3c(c(F)c21)-c1ccc(F)cc1C3OC(=O)C(F)(F)F` (configuration not stated), at Progesterone receptor [1], the IC50 amounted to 46 nM. At Progesterone receptor [2], this molecule came in with a Ki of 62.5 nM. The matching figures for `CC1=CC(C)(C)Nc2cc3oc4ccccc4c3cc21`: 1850 nM and 184 nM. As for `CC1=CC(C)(C)Nc2cc3c(cc21)-c1c(F)cccc1C3O` (configuration not stated), 99 nM corresponded to half-maximal inhibition at Progesterone receptor [1] (IC50). In addition, the inhibitory constant (Ki) at Progesterone receptor [2] came to 449 nM. The matching figures for `CC1=CC(C)(C)Nc2cc3c(cc21)-c1ccc([N+](=O)[O-])cc1C3`: 90 nM and 3.6 nM. As to `CC1=CC(C)(C)Nc2cc3c(cc21)-c1ccc(Cl)cc1C3`, on Progesterone receptor [1], the IC50 stood at 248 nM. The molecule further showed a Ki on Progesterone receptor [2] of 29 nM.

In turn, `CC1=CC(C)(C)Nc2cc3c(c(F)c21)-c1ccc(F)cc1C3(C)O` (configuration not stated) showed an IC50 on Progesterone receptor [1] of 10000 nM. Moreover, the Ki at Progesterone receptor [2] was above 10000 nM. In the same order, the values of `CC1=CC(C)(C)Nc2cc3c(cc21)-c1cc(F)cc(F)c1C3O` (configuration not stated) are 74 nM and 202 nM.

In turn, `CC1=CC(C)(C)Nc2ccc3c(c21)Cc1cc([N+](=O)[O-])c(F)cc1-3` came in with an IC50 at Progesterone receptor [1] of 3330 nM. This molecule displayed a Ki at Progesterone receptor [2] of 97 nM. The molecule `CC1=CC(C)(C)Nc2cc3c(cc21)-c1ccccc1C3` returned an IC50 against Progesterone receptor [1] of 220 nM. On Progesterone receptor [2], this molecule registered a Ki of 14 nM. In the same order, the values of `CC1=CC(C)(C)Nc2cc3[nH]c4ccccc4c3cc21` are 59 nM and 113 nM. Regarding `CC1=CC(C)(C)Nc2ccc3c(c21)Cc1cc([N+](=O)[O-])ccc1-3`, on Progesterone receptor [1], the IC50 is 1670 nM. The molecule also registered a Ki at Progesterone receptor [2] of 57 nM. The matching figures for `CC1=CC(C)(C)Nc2cc3c(cc21)-c1cc(F)c([N+](=O)[O-])cc1C3`: 100 nM and 1.9 nM. In the same order, the values of `CC1=CC(C)(C)Nc2cc3c(c(Cl)c21)-c1ccccc1C3O` (configuration not stated) are 163 nM and 53.1 nM. `CCCCn1c2ccccc2c2ccc3c(c21)C(C)=CC(C)(C)N3` registered an IC50 at Progesterone receptor [1] of 416 nM. Moreover, affinity on Progesterone receptor [2] was put at a Ki of 77 nM. At Progesterone receptor [1], `CC1=CC(C)(C)Nc2cc(F)c3c(c21)Cc1cc(F)ccc1-3` had an IC50 of 5680 nM. The molecule also gave a Ki on Progesterone receptor [2] of 20.9 nM. A word on the EC50: it is the concentration needed to bring the measured effect to its halfway point. The low end stands for higher potency in that assay, the high end for lower potency in that assay. `CC1=CC(C)(C)Nc2cc3c(c(F)c21)-c1ccc(F)cc1C3` gave an EC50 on Progesterone receptor [3] of 650 nM. Further, the Ki at Progesterone receptor [2] amounted to 1.5 nM. For `CC1=CC(C)(C)Nc2ccc3c(c21)Cc1cc(Br)ccc1-3`, the IC50 against Progesterone receptor [1] was 2330 nM. At Progesterone receptor [2], this molecule registered a Ki of 200 nM. In the same order, the values of `CC1=CC(C)(C)Nc2cc3c(cc21)-c1ccc(Br)cc1C3` are 434 nM and 24 nM.

The molecule `CC1=CC(C)(C)Nc2cc3c(cc21)-c1c(F)cccc1C3=O` displayed an IC50 on Progesterone receptor [1] of 158 nM. At Progesterone receptor [2], the inhibition constant Ki stood at 29.1 nM. `CC1=CC(C)(C)Nc2cc3c(c(F)c21)-c1ccc(F)cc1C3=O` returned a concentration for half-maximal inhibition (IC50) against Progesterone receptor [1] of 365 nM. The Ki on Progesterone receptor [2] was above 10000 nM. In the same order, the values of `CC1=CC(C)(C)Nc2cc3c(cc21)-c1ccc(Br)cc1C3O` (configuration not stated) are 3440 nM and 1860 nM. The matching figures for `CCn1c2ccccc2c2ccc3c(c21)C(C)=CC(C)(C)N3`: 284 nM and 169 nM. In the same order, the values of `CC1=CC(C)(C)Nc2ccc3c(c21)Cc1c(F)cccc1-3` are 496 nM and 15.5 nM.

Molecule `CC1=CC(C)(C)Nc2cc3c(cc21)-c1cccc(CO)c1C3` displayed an IC50 against Progesterone receptor [1] of 10000 nM. The molecule also had a Ki on Progesterone receptor [2] of 12.4 nM. The matching figures for `CC1=CC(C)(C)Nc2ccc3c(c21)Cc1ccccc1-3`: 549 nM and 13 nM. On Progesterone receptor [2], `CC1=CC(C)(C)Nc2cc3c(cc21)-c1ccc(F)cc1C3` gave a Ki of 3.5 nM. The molecule `CC1=CC(C)(C)Nc2cc(F)c3c(c21)C(O)c1cc(F)ccc1-3` (configuration not stated) yielded an IC50 against Progesterone receptor [1] of 10000 nM. Moreover, the affinity on Progesterone receptor [2] corresponds to a Ki of 2580 nM. In the same order, the values of `CC(=O)c1ccc2c(c1)Cc1cc3c(cc1-2)C(C)=CC(C)(C)N3` are 164 nM and 176 nM.

Consider `CC1=CC(C)(C)Nc2cc3c(cc21)-c1ccccc1C3O` (configuration not stated), for which the IC50 against Progesterone receptor [1] amounted to 609 nM. The same molecule yielded a Ki at Progesterone receptor [2] of 483 nM. In the same order, the values of `CC1=CC(C)(C)Nc2cc3c(cc21)-c1ccc(F)cc1C3O` (configuration not stated) are 122 nM and 101 nM. The matching figures for `CC1=CC(C)(C)Nc2cc3c(cc21)-c1ccc(Br)cc1C3Cc1ccccc1` (configuration not stated): 10000 nM and above 10000 nM. In the same order, the values of `CC1=CC(C)(C)Nc2cc3c(cc21)-c1cccc(F)c1C3` are 1770 nM and 2.3 nM.

On to `CC1CC(C)(C)Nc2cc3c(cc21)-c1ccccc1C3` (configuration not stated), for which, on Progesterone receptor [1], 424 nM corresponded to half-maximal inhibition (IC50). In addition, the Ki on Progesterone receptor [2] came out at 87 nM.

`CC1=CC(C)(C)Nc2ccc3c([nH]c4ccccc43)c21` returned an IC50 at Progesterone receptor [1] of 662 nM. This molecule also had a Ki on Progesterone receptor [2] above 1000 nM.

Regarding `CC1=CC(C)(C)Nc2cc3c(cc21)-c1ccccc1C3=O`, the IC50 against Progesterone receptor [1] is 353 nM. This molecule also registered a Ki on Progesterone receptor [2] of 3550 nM.
